Where “and” joins values, the source holds several entries; their conditions need not be identical. Equal values may be shown once. Read-outs that look alike come from different tables or passages of the source.
Assays:
Cerezyme = target: T1, Cerezyme (Homo sapiens, UniProt P04062, R534H); test: Cerezyme activity on mammalian C18-glucosylceramide in presence of hits (LC-MS); assay type: biochemical; settings: for C18-ceramide: hits at 100 µM, 10 µg Cerezyme, 10 µg mammalian C18-glucosylceramide, pH 5.5, 37°C, 3 hours; for inhibition of human Cerezyme: physiological mammalian glucosylceramide substrate, 100 µM compound
T1 construct: purchased Genzyme Corporation, Cambridge, MA, USA
T1 sequence (P04062 40-536 R534H): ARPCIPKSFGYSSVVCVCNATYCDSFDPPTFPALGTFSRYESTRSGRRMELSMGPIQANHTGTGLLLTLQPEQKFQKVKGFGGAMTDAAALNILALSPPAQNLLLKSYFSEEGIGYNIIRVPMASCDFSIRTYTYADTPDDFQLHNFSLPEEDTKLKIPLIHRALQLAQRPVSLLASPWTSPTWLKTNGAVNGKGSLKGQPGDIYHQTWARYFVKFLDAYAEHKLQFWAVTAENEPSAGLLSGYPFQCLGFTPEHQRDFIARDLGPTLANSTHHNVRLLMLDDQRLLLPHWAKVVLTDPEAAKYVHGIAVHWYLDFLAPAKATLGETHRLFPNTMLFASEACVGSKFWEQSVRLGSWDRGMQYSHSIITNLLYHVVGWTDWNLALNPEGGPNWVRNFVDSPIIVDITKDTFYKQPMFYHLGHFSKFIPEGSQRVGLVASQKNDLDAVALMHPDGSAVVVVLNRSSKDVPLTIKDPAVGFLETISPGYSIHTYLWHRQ
Procedure: Supplementary figure 8. Cerezyme is not inhibited by its 1, 9 and 15. 10 µg of Cerezyme was added to 10 µg of mammalian C18-glucosylceramide in the presence of 100 µM of compound hits. The reactions were performed in 50 mM sodium acetate buffer pH5.5 and incubated at 37°C for 3 hours. The amount of C18-ceramide formed was quantified by LC-MS. There was no significant difference between the control (no drug) and samples with 100 µM of hits 1, 9 and 15 (p>0.05). Statistical analysis by one-way ANOVA, Dunnett's Multiple Comparison Test. Data represent the mean +/- SD of n=3 independent experiments.

[1] = tested on: human lung epithelial cancer cell line A549; settings: LD50 A549 / IC50 Sgl1
Procedure: The cells were maintained in Dulbecco’s modified eagle medium containing 10% fetal bovine serum and 1% penicillin–streptomycin. At passage 11, 10^5 cells were transferred into each well of 96-well plates and cultured for 18–24 h for the cells to adhere to the well surface. After, the medium was removed and a fresh medium containing the selected compounds at a concentration range of 1–512 μM were added to the wells. Controls with equivalent serial concentrations of DMSO were also evaluated and compared with a control without DMSO. The plate was incubated at 37 °C with 5% CO2. After 24 h, the supernatant was removed and 50 μL of 5 mg/mL 3-(4,5-dimethylthiazol-2-yl)-2,5-diphenyltetrazoliumbromide (MTT) solution in phosphate-buffered saline (PBS) was added to each well. The plates were incubated for an additional 4 h and the formazan crystals formed inside the cell was dissolved by adding 50 μL DMSO.

C. neoformans Sgl1 = C. neoformans Sgl1 (Cryptococcus neoformans var. grubii, UniProt J9W473); test: Sgl1 inhibition with res-glp substrate (HTS, single-compound dose-response); assay type: biochemical; settings: for % Sgl1 Inhibition / inhibition at 0.125 µM / inhibition at 0.5 µM / inhibition at 1 µM / inhibition at 2 µM / inhibition at 4 µM / inhibition at 8 µM / inhibition at […]: substrate resorufin 3β-D-glucopyranoside (100 µM); for inhibition at 0.125 µM: read-out: % Sgl1 Inhibition, 0.125 µM compound; for inhibition at 0.5 µM: read-out: % Sgl1 Inhibition, 0.5 µM compound; for inhibition at 1 µM: read-out: % Sgl1 Inhibition, 1 µM compound; for inhibition at 2 µM: read-out: % Sgl1 Inhibition, 2 µM compound; for inhibition at 4 µM: read-out: % Sgl1 Inhibition, 4 µM compound; for inhibition at 8 µM: read-out: % Sgl1 Inhibition, 8 µM compound; for inhibition at […]: read-out: % Sgl1 Inhibition, […] compound; for IC50: res-glp as substrate (100 µM), primary screen, read-out: IC50 against Sgl1
Sequence of C. neoformans Sgl1 (J9W473 entry or part of it): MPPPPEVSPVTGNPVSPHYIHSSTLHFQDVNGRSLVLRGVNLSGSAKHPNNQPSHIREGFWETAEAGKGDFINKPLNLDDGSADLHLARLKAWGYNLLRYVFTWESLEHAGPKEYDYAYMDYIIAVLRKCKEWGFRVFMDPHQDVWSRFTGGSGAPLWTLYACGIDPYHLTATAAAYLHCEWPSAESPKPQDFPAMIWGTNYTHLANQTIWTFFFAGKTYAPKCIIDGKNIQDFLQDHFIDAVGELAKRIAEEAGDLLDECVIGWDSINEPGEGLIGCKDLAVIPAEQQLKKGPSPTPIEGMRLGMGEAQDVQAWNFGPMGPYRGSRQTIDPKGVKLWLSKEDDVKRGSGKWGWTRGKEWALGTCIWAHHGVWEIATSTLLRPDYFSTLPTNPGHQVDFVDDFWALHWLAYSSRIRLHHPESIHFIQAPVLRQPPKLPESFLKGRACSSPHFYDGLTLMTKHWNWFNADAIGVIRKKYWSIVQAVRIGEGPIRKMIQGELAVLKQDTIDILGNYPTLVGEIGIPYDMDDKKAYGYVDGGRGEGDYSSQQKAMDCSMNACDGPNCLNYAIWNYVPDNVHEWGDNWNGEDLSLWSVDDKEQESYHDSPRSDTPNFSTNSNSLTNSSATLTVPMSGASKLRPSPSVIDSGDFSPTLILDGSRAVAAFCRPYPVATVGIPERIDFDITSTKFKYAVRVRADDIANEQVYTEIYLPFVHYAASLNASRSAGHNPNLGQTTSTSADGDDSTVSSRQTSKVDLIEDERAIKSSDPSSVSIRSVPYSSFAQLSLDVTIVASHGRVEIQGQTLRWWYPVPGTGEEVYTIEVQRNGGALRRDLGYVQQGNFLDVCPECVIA
Procedure: Resorufin-3β-D-glucopyranoside (res-glp, Sigma-Aldrich) enzyme kinetic assays were performed according to methods described by Urban et al.[16] with modifications. Reaction buffer contained 50 mM citric acid, 176 mM K2HPO4, pH 6, 0.01% Tween-20, and 10 mM sodium taurocholate. The reactions were carried out in black 96-well plates using 20 ng of enzyme with 100 μM res-glp substrate. In all, 10 μL/well of res-glp substrate was added to each well and the reaction was initiated by adding 20 μL enzyme (20 ng). After incubation at 37 °C for 30–40 min, the fluorescence was read at an excitation of 570 (±10) nm and an emission of 610 (±10) nm on a VersaMax™ Microplate Reader from Molecular Devices. A standard curve was prepared with serial dilutions of the free fluorophore, resorufin, in the same volume of assay buffer.
A ChemBridge DIVERSet-CL library (San Diego, CA) containing 50,000 compounds was screened to identify small molecules that inhibit C. neoformans Sgl1. The library was prepared in a 96-well plate format containing a cocktail of 10 compounds per well at 1 mM each in 100% DMSO. The cocktail plates were first diluted to 100 μM each (1:10 dilution in Dulbecco’s phosphate-buffered saline, DPBS) resulting in 10% DMSO. In order to screen the compound cocktails at […] in 1% DMSO in a final reaction volume of 30 μL an aliquot of 3 μL was added to 17 μL of buffer containing 20 ng of enzyme and the reaction was started adding 10 μL of 100 μM res-glp. A negative control without enzyme and positive controls with and without DMSO were prepared. The plates were incubated at 37 °C for 40 min.
The Z′-factor was used for the assessment of the efficiency of the HTS assay for each individual plate. Values greater than 0.5 has been considered as an indicator of an excellent screening assay quality.

C. neoformans H99 = assay type: cell-based, Cryptococcus neoformans; settings: for Ergosterol 3β-D-glucoside accumulation (pmol/ Inorganic phosphate): 100 µM; for accumulation of erg-glc, fold less than the mutant Cn Δsgl1: 500 µM, 24 h; for erg-glc accumulation compared to untreated Cn H99 control: 24 h of treatment
Procedure: C. neoformans H99 was cultivated in yeast nitrogen base (YNB) broth for 24 h at 37 °C with shaking. […] […] After that, the resultant pellets were re-counted and used for lipid extraction. Thenceforth the total lipid was extracted as described previously by Singh et al.[55]. The dried samples were resuspended in chloroform/methanol 2:1 ratio for LC-MS analysis. A standard erg-glc from Avanti Polar Lipids was used as a control for the calibration curve. Data were normalized to the total inorganic phosphate content in the sample.

Compound	C18-ceramide (Cerezyme)	inhibition of human Cerezyme (Cerezyme)	selectivity index (SI = LD50/IC50) [1]	% Sgl1 Inhibition (C. neoformans Sgl1; 0.125 µM compound)	% Sgl1 Inhibition (C. neoformans Sgl1; 0.5 µM compound)	% Sgl1 Inhibition (C. neoformans Sgl1; 1 µM compound)	% Sgl1 Inhibition (C. neoformans Sgl1; 2 µM compound)	% Sgl1 Inhibition (C. neoformans Sgl1; 4 µM compound)	% Sgl1 Inhibition (C. neoformans Sgl1; 8 µM compound)	inhibition at 0.125 µM (C. neoformans Sgl1) [%]	inhibition at 0.5 µM (C. neoformans Sgl1) [%]	inhibition at 1 µM (C. neoformans Sgl1) [%]	inhibition at 2 µM (C. neoformans Sgl1) [%]	inhibition at 4 µM (C. neoformans Sgl1) [%]	inhibition at 8 µM (C. neoformans Sgl1) [%]	inhibition at […] (C. neoformans Sgl1) [%]	IC50 (C. neoformans Sgl1)	Ergosterol 3β-D-glucoside accumulation (pmol/ Inorganic phosphate) (C. neoformans H99; 12h)	Ergosterol 3β-D-glucoside accumulation (pmol/ Inorganic phosphate) (C. neoformans H99; 24h)	accumulation of erg-glc, fold less than the mutant Cn Δsgl1 (C. neoformans H99)	also measured
CC(C)c1nc(N[C@@H]2C[C@@H](CO)N(C)C2)c2cnn(C)c2n1 [Hit 15]	1251.6 pmol/mL and 855.67 pmol/mL and 1299.99 pmol/mL	not inhibited	> 500	9.082% and 9.377% and 8.377%	26.2814% and 26.2434% and 24.9511%	39.5402% and 38.9055% and 37.6785%	58.3844% and 57.9199% and 56.5095%	75.564% and 74.8313% and 74.139%	85.0771% and 84.7714% and 84.105%	10.2	27.9	40.8	59.6	76.4	85.5	14.9	~1000 nM and 1000 nM	28100000 pmol/ Inorganic phosphate and 30500000 pmol/ Inorganic phosphate and 41500000 pmol/ Inorganic phosphate	39400000 pmol/ Inorganic phosphate and 51600000 pmol/ Inorganic phosphate and 57400000 pmol/ Inorganic phosphate	about 10 fold	selectivity index (SI = LD50/IC50) ([1]; listed as 15): > 512; Ergosterol 3β-D-glucoside accumulation (pmol/ Inorganic phosphate) (C. neoformans H99; 48h): 34400000 pmol/ Inorganic phosphate and 28300000 pmol/ Inorganic phosphate and 33700000 pmol/ Inorganic phosphate; erg-glc accumulation compared to untreated Cn H99 control (C. neoformans H99): significant differences, especially in concentrations higher than 10 µM
COc1cccc(-c2ncc(CN3CCC(O)(CO)CC3)s2)c1 [Hit 1]	871.82 pmol/mL and 1017.11 pmol/mL and 1021.42 pmol/mL	not inhibited	> 500	–	–	–	–	–	–	0	14	45.8	56.1	74	90.2	0	~1000 nM and 1000 nM	22000000 pmol/ Inorganic phosphate and 25300000 pmol/ Inorganic phosphate and 19400000 pmol/ Inorganic phosphate	17200000 pmol/ Inorganic phosphate and 20300000 pmol/ Inorganic phosphate and 31000000 pmol/ Inorganic phosphate	about 10 fold	erg-glc accumulation compared to untreated Cn H99 control (C. neoformans H99): significant differences, especially in concentrations higher than 10 µM
CN1C[C@@H](NC(=O)Cc2ccc3c(c2)NC(=O)CO3)C[C@@H]1CO [Hit 9]	1045.62 pmol/mL and 1138.29 pmol/mL and 953.48 pmol/mL	not inhibited	> 500	56.0175% and 54.9266% and 54.4568%	83.3956% and 82.99% and 82.7099%	91.001% and 90.7947% and 90.4821%	95.2753% and 95.0933% and 95.0009%	97.4258% and 97.3045% and 97.2378%	98.6119% and 98.5721% and 98.4808%	57.2	84	91.3	95.5	97.5	98.6	73.1	~1000 nM	–	–	about 10 fold	–

Source: PMC8497620, “Structure and inhibition of Cryptococcus neoformans sterylglucosidase to develop antifungal agents” (Nature Communications, 2021)
